Patent US20110269790A1, “NOVEL THIENOPYRIDINES AS PHARMACOLOGICALLY ACTIVE AGENTS” (priority 2009, published 2011)
Values after ≈ are worked out from the molar mass of the structure shown. “Also recorded” adds a separate entry of the source.

The molecules below were run on A549 (Lung cancer) (assay: MTT assay, A549). Conditions: Homo sapiens, A549, 48 h, read-out: A549 IC50.
Format: cell-based
Method: (§1) A431 (Skin cancer), Colo-205 (Colon cancer), A549 (Lung cancer) cell lines were obtained from National Center for Cell science (NCCS), Pune, India. DMEM (Dulbeccos Modified Eagles Medium), MTT [3-(4,5-dimethylthiazol-2-yl)-2,5-diphenyl tetrazolium bromide], Trypsin, EDTA were purchased from Sigma Chemicals Co (St. Louis, Mo.), Fetal bovine serum were purchased from Arrow labs, 96 well flat bottom tissue culture plates were purchased from Tarson.
(§2) A431, Colo-205, A549 cell lines were grown as adherent cells in DMEM media supplemented with 10% fetal bovine serum, 100 μg/ml penicillin, 200 μg/ml streptomycin, 2 mM L-glutamine, and culture was maintained in a humidified atmosphere with 5% CO2. Stock solution of 10 mg/ml was prepared for test molecules in DMSO. From the stock, various dilutions were made with sterile water to get required concentration. A431, Colo-205, A549 cell lines were seeded at a density of 1×10^4 cells (cell number was determined by Trypan blue exclusion dye method) per each well in 100 μl of DMEM supplemented with 10% FBS. 12 hrs after seeding, above media was replaced with fresh DMEM supplemented with 10% FBS. Then, 10 μl sample from above stock solutions were added to each well in triplicates which gives final concentration of 100, 50, 25, 10 μg/well. The above cells were incubated for 48 hrs at 37° C. with 5% CO2. After 48 hrs incubation the above media was replaced with 100 μl of fresh DMEM with out FBS and to this 10 μl of MTT (5 mg dissolved in 1 ml of PBS) was added and incubated for 3 hrs at 37° C. with 5% CO2. After 3 hrs of incubation, the above media was removed with multi channel pipette, then 200 μl of DMSO was added to each well and incubated at 37° C. for 15 min. Finally, the plate was read at 570 nm using spectrophotometer (Spectra Max, Molecular devices).

First: Nc1c2c(nc3sc4c(c13)CCCC4)CCCCC2 [BN-8, 2,3,4,7,8,9,10,11-Octahydro-1H-benzo[4,5]thieno[2,3-b]cyclohepta [e]pyridin-12-amine]
Second: Nc1c2c(nc3sc4c(c13)CCC4)CCC2 [BN-13, 1,2,3,6,7,8-hexahydrocyclopenta [b]cyclopenta[4,5] thieno[3,2-e]pyridin-9-amine]
The IC50 of the first is 2.2-fold higher: 186 µg/mL (≈ 683 µM) for the first, 83.2 µg/mL (≈ 361 µM) for the second.

Same assay, conditions: Homo sapiens, A549; MTT, 48 hrs; read-out: A549 IC50

Compared with `Cc1sc2nc3c(c(N)c2c1C)CCC3` [BN-1, 2,3-dimethyl-6,7-dihydro-5H-cyclopenta[b]thieno[3,2-e]pyridin-4-amine], `Cc1sc2nc3c(c(N)c2c1C)CCCC3` [BN-2, 2,3-dimethyl-5,6,7,8-tetrahydrothieno[2,3-b]quinolin-4-amine] is 3.8-fold lower in IC50: 190 µg/mL (≈ 870 µM) for the first, 50.1 µg/mL (≈ 216 µM) for the second.

First: Cc1sc2nc3c(c(N)c2c1C)CCCCC3 [BN-4, 2,3-dimethyl-6,7,8,9-tetrahydro-5H-cyclohepta[b]thieno[3,2-e]pyridin-4-amine]
Second: Nc1c2c(nc3sc4c(c13)CCCC4)CCC2 [BN-5, 2,3,6,7,8,9-Hexahydro-1H-benzo[4,5]thieno[2,3-b]cyclopenta[e]pyridin-10-amine]
The IC50 of the first is 4-fold lower: 36.3 µg/mL (≈ 147 µM) for the first, 144 µg/mL (≈ 591 µM) for the second.

Each molecule was assayed on Colo-205 (Colon cancer) (assay: MTT assay, Colo-205). Conditions: Homo sapiens, COLO 205, 48 h, read-out: Colo-205 IC50.
Format: cell-based
Method: as §1, §2

Going from `Nc1c2c(nc3sc4c(c13)CCCC4)CCCCC2` [BN-8, 2,3,4,7,8,9,10,11-Octahydro-1H-benzo[4,5]thieno[2,3-b]cyclohepta [e]pyridin-12-amine] to `Nc1c2c(nc3sc4c(c13)CCC4)CCC2` [BN-13, 1,2,3,6,7,8-hexahydrocyclopenta [b]cyclopenta[4,5] thieno[3,2-e]pyridin-9-amine], the IC50 rises from 70.8 µg/mL (≈ 260 µM) to 144 µg/mL (≈ 625 µM) (2-fold).

Same assay, conditions: Homo sapiens, COLO 205; MTT, 48 hrs; read-out: Colo-205 IC50

First: Cc1sc2nc3c(c(N)c2c1C)CCC3 [BN-1, 2,3-dimethyl-6,7-dihydro-5H-cyclopenta[b]thieno[3,2-e]pyridin-4-amine]
Second: Cc1sc2nc3c(c(N)c2c1C)CCCC3 [BN-2, 2,3-dimethyl-5,6,7,8-tetrahydrothieno[2,3-b]quinolin-4-amine]
The IC50 of the first is 2.1-fold higher: 245 µg/mL (≈ 1120 µM) for the first, 117 µg/mL (≈ 504 µM) for the second.

Same assay, conditions: MTT, 48 hrs

`Cc1sc2nc3c(c(N)c2c1C)CCCCC3` [BN-4, 2,3-dimethyl-6,7,8,9-tetrahydro-5H-cyclohepta[b]thieno[3,2-e]pyridin-4-amine] was tested, and the “Colo-205 IC50” value was “No activity”.
In the case of `Nc1c2c(nc3sc4c(c13)CCCC4)CCC2` [BN-5, 2,3,6,7,8,9-Hexahydro-1H-benzo[4,5]thieno[2,3-b]cyclopenta[e]pyridin-10-amine], the “Colo-205 IC50” value is reported as “No activity”.

The molecules below were run on A431 (Skin cancer) cell lines (assay: MTT assay, A431). Conditions: Homo sapiens, A-431, 48 h, read-out: A431 cell lines IC50.
Format: cell-based
Method: as §1, §2

`Nc1c2c(nc3sc4c(c13)CCCC4)CCCCC2` [BN-8, 2,3,4,7,8,9,10,11-Octahydro-1H-benzo[4,5]thieno[2,3-b]cyclohepta [e]pyridin-12-amine] and `Nc1c2c(nc3sc4c(c13)CCC4)CCC2` [BN-13, 1,2,3,6,7,8-hexahydrocyclopenta [b]cyclopenta[4,5] thieno[3,2-e]pyridin-9-amine] are within 1.5-fold of each other in IC50: 51.1 µg/mL (≈ 188 µM) for the first, 50.1 µg/mL (≈ 218 µM) for the second.

Same assay, conditions: Homo sapiens, A-431; MTT, 48 hrs; read-out: A431 cell lines IC50

`Cc1sc2nc3c(c(N)c2c1C)CCC3` [BN-1, 2,3-dimethyl-6,7-dihydro-5H-cyclopenta[b]thieno[3,2-e]pyridin-4-amine] and `Cc1sc2nc3c(c(N)c2c1C)CCCC3` [BN-2, 2,3-dimethyl-5,6,7,8-tetrahydrothieno[2,3-b]quinolin-4-amine] are within 1.5-fold of each other in IC50: 45.7 µg/mL (≈ 209 µM) for the first, 31.6 µg/mL (≈ 136 µM) for the second.

First: Cc1sc2nc3c(c(N)c2c1C)CCCCC3 [BN-4, 2,3-dimethyl-6,7,8,9-tetrahydro-5H-cyclohepta[b]thieno[3,2-e]pyridin-4-amine]
Second: Nc1c2c(nc3sc4c(c13)CCCC4)CCC2 [BN-5, 2,3,6,7,8,9-Hexahydro-1H-benzo[4,5]thieno[2,3-b]cyclopenta[e]pyridin-10-amine]
The IC50 of the first is 2.9-fold lower: 47.8 µg/mL (≈ 194 µM) for the first, 141 µg/mL (≈ 577 µM) for the second.

The molecules below were run against T1, porcine pancreatic α-amylase (Sus scrofa, UniProt P00690) (assay: α-Amylase inhibition assay). Conditions: 10 mg per ml.
T1 construct: α-amylase [EC 3.2.1.1) Type VI B: from porcine pancreas]; purchased Sigma Chemical Co., St Louis, Mo., USA; host or cells: porcine pancreas (natural source)
T1 sequence (P00690 16-511): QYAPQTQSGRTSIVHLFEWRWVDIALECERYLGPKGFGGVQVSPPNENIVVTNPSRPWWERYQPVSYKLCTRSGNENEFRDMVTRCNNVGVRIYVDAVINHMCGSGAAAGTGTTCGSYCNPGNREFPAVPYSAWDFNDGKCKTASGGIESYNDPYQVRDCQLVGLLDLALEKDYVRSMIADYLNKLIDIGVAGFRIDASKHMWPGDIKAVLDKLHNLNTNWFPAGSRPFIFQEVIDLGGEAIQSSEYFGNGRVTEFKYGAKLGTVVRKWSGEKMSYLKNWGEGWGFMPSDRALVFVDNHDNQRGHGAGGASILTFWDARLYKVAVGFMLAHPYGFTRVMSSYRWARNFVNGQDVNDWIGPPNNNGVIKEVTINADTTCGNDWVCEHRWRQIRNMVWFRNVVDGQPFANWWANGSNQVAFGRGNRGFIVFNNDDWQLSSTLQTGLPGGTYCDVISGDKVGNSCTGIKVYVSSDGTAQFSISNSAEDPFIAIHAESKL
Format: biochemical
Source text: Chemicals: α-Glucosidase [(EC 3.2.1.20) Type I: from bakers yeast], rat intestinal acetone powder (as a source of crude intestinal α-glucosidase), α-amylase [EC 3.2.1.1) Type VI B: from porcine pancreas], p-nitrophenyl α-D-glucopyranoside, 3,5-dinitro salicylic acid, soluble potato starch and 1-deoxyrojirimycine, were purchased from Sigma Chemical Co., St Louis, Mo., USA. Other chemicals of analytical grade were procured from indigenous manufacturers.
a-Amylase Inhibition Assay: The assay method was adopted from Ali et al. (2006) and modified accordingly to suite microplate reading. In brief, 40 μL of test samples (10 mg/mL DMSO) were reconstituted in 160 μL of 20 mM phosphate buffer (pH 6.9) containing 6.7 mM sodium chloride in 2 mL Eppendorf tubes and incubated with 200 μL of porcine pancreatic α-amylase) (4 U/mL prepared in ice cold distilled water) for 5 min. The reaction was started by the addition of 400-μL soluble potato starch solution (0.5% w/v in 20 mM phosphate buffer, pH 6.9). Exactly 3 min after incubation, 400 μL DNS color reagent (1.0 g of 3,5-dinitrosalicylic acid, 30 g of sodium potassium tartrate and 20 mL of 2 N NaOH to a final volume of 100 mL in distilled water) was added. Closed tubes were placed in a water bath (85-90° C.) for 10 min to develop color and cooled thereafter. 50 μL of reaction mixtures was diluted with 175 μL of distilled water in a 96-well microplate. α-Amylase activity was determined by measuring the absorbance of the mixture at 540 nm spectrophotometrically as above. Individual blanks were prepared to correct for the background absorbance due to test samples. In this case DNS solution was added in tubes before addition of substrate. The percentage inhibition of enzyme activity was calculated as above. All the tests were run in duplicate in this assay.

With `Cc1sc2nc3c(c(N)c2c1C)CCCC3` [BN-2, 2,3-dimethyl-5,6,7,8-tetrahydrothieno[2,3-b]quinolin-4-amine] the “Alpha amylase inhibitory activity (in words)” value was “strong inhibitory activity; also recorded: mild inhibition”.
`Nc1c2c(nc3sc4c(c13)CCCC4)CCCCC2` [BN-8, 2,3,4,7,8,9,10,11-Octahydro-1H-benzo[4,5]thieno[2,3-b]cyclohepta [e]pyridin-12-amine] was tested, and the “Alpha amylase inhibitory activity (in words)” value was “strong inhibitory activity”.
`Nc1c2c(nc3sc4c(c13)CCC4)CCC2` [BN-13, 1,2,3,6,7,8-hexahydrocyclopenta [b]cyclopenta[4,5] thieno[3,2-e]pyridin-9-amine] was tested, and the “Alpha amylase inhibitory activity (in words)” value was “strong inhibitory activity”.

Same assay, conditions: 10 mg per ml; a/b marks the respective control (Control-1 2.147, Control-2 3.429)

`Cc1sc2nc3c(c(N)c2c1C)CCC3` [BN-1, 2,3-dimethyl-6,7-dihydro-5H-cyclopenta[b]thieno[3,2-e]pyridin-4-amine] and `Cc1sc2nc3c(c(N)c2c1C)CCCC3` [BN-2, 2,3-dimethyl-5,6,7,8-tetrahydrothieno[2,3-b]quinolin-4-amine] are within 1.5-fold of each other in Maltose released: 2.20 mg/mL for the first, 2.095 mg/mL for the second.

`Cc1sc2nc3c(c(N)c2c1C)CCCCC3` [BN-4, 2,3-dimethyl-6,7,8,9-tetrahydro-5H-cyclohepta[b]thieno[3,2-e]pyridin-4-amine] and `Nc1c2c(nc3sc4c(c13)CCCC4)CCC2` [BN-5, 2,3,6,7,8,9-Hexahydro-1H-benzo[4,5]thieno[2,3-b]cyclopenta[e]pyridin-10-amine] are within 1.5-fold of each other in Maltose released: 3.496 mg/mL for the first, 3.226 mg/mL for the second.

`Nc1c2c(nc3sc4c(c13)CCCC4)CCCCC2` [BN-8, 2,3,4,7,8,9,10,11-Octahydro-1H-benzo[4,5]thieno[2,3-b]cyclohepta [e]pyridin-12-amine] and `Nc1c2c(nc3sc4c(c13)CCC4)CCC2` [BN-13, 1,2,3,6,7,8-hexahydrocyclopenta [b]cyclopenta[4,5] thieno[3,2-e]pyridin-9-amine] are within 1.5-fold of each other in Maltose released: 0.913 mg/mL for the first, 1.278 mg/mL for the second.

Same assay, conditions: 0.05 h; 10 mg per ml; calculated from maltose released vs respective control

Compared with `Cc1sc2nc3c(c(N)c2c1C)CCC3` [BN-1, 2,3-dimethyl-6,7-dihydro-5H-cyclopenta[b]thieno[3,2-e]pyridin-4-amine], `Cc1sc2nc3c(c(N)c2c1C)CCCC3` [BN-2, 2,3-dimethyl-5,6,7,8-tetrahydrothieno[2,3-b]quinolin-4-amine] is higher in inhibition at 10000 µg/mL (stock): -3.12% for the first, 39.7% for the second.

Going from `Cc1sc2nc3c(c(N)c2c1C)CCCCC3` [BN-4, 2,3-dimethyl-6,7,8,9-tetrahydro-5H-cyclohepta[b]thieno[3,2-e]pyridin-4-amine] to `Nc1c2c(nc3sc4c(c13)CCCC4)CCC2` [BN-5, 2,3,6,7,8,9-Hexahydro-1H-benzo[4,5]thieno[2,3-b]cyclopenta[e]pyridin-10-amine], the inhibition at 10000 µg/mL (stock) rises from -2.01% to 4.85%.
